Experiments:
JIMT-1 cells = assay: Colony formation assay; format: cell-based, human; details: 12 days
Description: For monolayer culture, single-cell suspensions of JIMT-1 cells (3×10^3 cells/well) were plated in a 12-well plate. […] In order to test the colony formation capacity of MCF-12A cells during TACC3 overexpression, MCF-12A cells (2×10^5) were seeded into 6-well plates and TACC3 trasnfection was performed next day. 48 h following transfection, cells were counted and 1×10^3 cells/well were plated into 12-well plates. For both experimental setups, the media were refreshed every 4 days, and cells were incubated for 12 days. Cells were then fixed with 2% paraformaldehyde for 15 min and stained with 1% crystal violet (Merck, Darmstadt, Germany) for 15 min at RT. Surviving colonies (composed of at least 50 cells) were counted with ImageJ software (NIH).

CT26 = details: 25-50 mg/kg daily and orally
Description: (§1) Female nude mice and Balb/c mice were injected with human colon carcinoma cell line, HCT-116, and murine colon carcinoma cell line, CT26, respectively, into flank region of mice.
(§2) 4×10^6 HCT-116 and 1×10^6 cells were prepared either in matrigel:PBS or in PBS, respectively, and injected subcutaneously into flank region of mice. […] Mice body weight was measured regularly.

HCT-116 = details: 25-50 mg/kg daily and orally
Description: as §1, §2

4T1-Luc2 = 4T1-Luc2 lung metastasis model; format: in vivo, mice
Description: Next, to examine the effects of TACC3 inhibition on metastatic growth, an aggressive murine mammary tumor cells, 4T1-Luc2 (luciferase labelled), were injected intravenously to immunocompetent female mice. […] Metastatic outgrowth was monitored with in vivo imaging system (IVIS) by measuring bioluminescence.
Highly aggressive and metastatic 4T1-Luc2 (luciferase labelled) cells were prepared in PBS as 1×10^6 cells/mouse and injected intravenously to Balb/c female mice. Metastasis development was monitored using in vivo imaging system (IVIS) and bioluminescence was quantified regularly. […] Survival was calculated when mice died.

CYP2C9 = CYP2C9 (Homo sapiens, UniProt P11712); details: read-out: IC50 CYP2C9; human liver microsomes
TACC3 [1] = biological target: T1, TACC3 (Homo sapiens, UniProt Q9Y6A5); assay: Isothermal titration calorimetry (ITC) of TACC3 into compound 5; format: binding; parameters: purchased Origene TP310754; details: 25° C.
Description: (§3) DARTS is a label free-strategy to identify potential direct protein targets for small molecules and is based on stabilization and protection from proteolysis of the target protein upon binding to small molecules (Lomenick, Jung et al. 2011, Pai, Lomenick et al. 2015).
Titrations were carried out using Microcal 200 equipment (GE Healthcare, Austria) at 25° C. For each titration, 10 injections were made with 6 min spacing. The reference power was set at 2 μcal/sec, and the sample cell was continuously stirred at 500 rpm. In order to assess the binding efficiency between drug and protein, background data obtained by protein injected into buffer alone was subtracted from the experimental isotherms. The data was analyzed using Origin 7 Software provided along with the ITC200, and binding parameters such as association constant (Ka), number of binding sites (N) and enthalpy (ΔH) were calculated.

TACC3 [2] = biological target: T1, TACC3; assay: Cellular thermal shift assay (CETSA) in intact JIMT-1 cells; format: binding; parameters: endogenous in cells; host or cells: JIMT-1; details: 1 μM, 6 h
Excerpt: Protein thermal melting curves are also showing a thermal shift between vehicle and compound 5 treated band intensities. This interaction was also validated with isothermal titration calorimetry (ITC). […] DARTS is a label free-strategy to identify potential direct protein targets for small molecules and is based on stabilization and protection from proteolysis of the target protein upon binding to small molecules (Lomenick, Jung et al. 2011, Pai, Lomenick et al. 2015).
After treatment, cell pellets were resuspended in Tris-buffered saline (TBS) containing protease and phosphatase inhibitors. The cell suspension was divided into 6 PCR tubes and heated for 5 min to 45, 46, 47, 48, 49, 50° C. Subsequently, cells were lysed by three repeated freeze-thaw cycles with liquid nitrogen. Soluble proteins were collected with centrifugation at 20,000 g for 20 min at 4° C. and analyzed by sodium dodecyl sulfate polyacrylamide gel electrophoresis (SDS-PAGE) followed by western blot analysis.

TACC3 [3] = biological target: T1, TACC3; assay: Drug affinity responsive target stability (DARTS) with JIMT-1 cell protein extracts; format: binding; parameters: endogenous in cells; host or cells: JIMT-1; details: 10 μM
Excerpt: as §3

Chain of CYP2C9 (P11712 whole entry): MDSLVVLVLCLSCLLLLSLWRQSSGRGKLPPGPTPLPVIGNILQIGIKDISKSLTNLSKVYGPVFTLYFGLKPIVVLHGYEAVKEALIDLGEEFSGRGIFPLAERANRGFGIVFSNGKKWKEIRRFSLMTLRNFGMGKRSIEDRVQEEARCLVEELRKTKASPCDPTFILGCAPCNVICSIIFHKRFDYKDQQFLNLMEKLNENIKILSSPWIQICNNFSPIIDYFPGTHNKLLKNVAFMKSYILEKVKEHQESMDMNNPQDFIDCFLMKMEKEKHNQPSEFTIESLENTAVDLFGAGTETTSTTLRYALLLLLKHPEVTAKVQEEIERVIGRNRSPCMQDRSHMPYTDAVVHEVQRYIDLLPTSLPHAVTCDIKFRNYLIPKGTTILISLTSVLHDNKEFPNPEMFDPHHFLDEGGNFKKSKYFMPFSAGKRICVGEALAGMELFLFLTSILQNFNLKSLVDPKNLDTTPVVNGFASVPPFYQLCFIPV

For `COc1ccc(-c2cc(Nc3ccnc(N4CCOCC4)n3)on2)cc1` [Compound 5], the “average colony number compared with other two inhibitors at the same doses” value (JIMT-1 cells) was “significantly lower”, the tolerability (CT26) was “well tolerated” and the tumor growth (CT26) was “significantly impaired tumor growth”. For the same molecule, the tolerability (HCT-116) was “well tolerated”, the tumor growth (HCT-116) was “significantly impaired tumor growth” and the “metastatic growth compared to vehicle” value (4T1-Luc2; 50 mg/kg daily orally) was “impair metastatic growth”. The overall survival (4T1-Luc2; 50 mg/kg daily orally) was “significantly improved mice overall survival”, the median survival (4T1-Luc2; 50 mg/kg every day orally, vehicle 19 days) was 28 days and the IC50 (CYP2C9) was 2630 nM. The Kd (TACC3 [1]) was 1.5 nM, the “N (number of binding sites)” value (TACC3 [1]) was 0.704 and the ΔH (TACC3 [1]) was 49290 kcal/mol. For the same molecule, the ΔS (TACC3 [1]) was 1.65E5 cal/mol/deg, the “stabilization of cellular TACC3 upon temperature increase” value (TACC3 [2]) was “considerably stabilized cellular TACC3” and the “stabilization of TACC3 protein in the presence of pronase” value (TACC3 [3]) was “TACC3 protein was stabilized”.

From patent publication US20230027854A1, “ISOXAZOLE DERIVATIVES TARGETING TACC3 AS ANTICANCER AGENTS” (A2A Pharmaceuticals, inc., priority 2019, published 2023)
